Article PMC12621367, “Salvianolic acid C inhibits methane emissions in dairy cows by targeting MCR and reshaping the rumen microbial community” (Journal of Animal Science and Biotechnology, 2025)

Molecular target: T1, Methyl-coenzyme M reductase (MCR)
T1 construct: gene mcrA; with McrB and McrG (β and γ subunits)
Experiment: MCR activity inhibition with a microbial MCR ELISA kit, dose-response, OD […] nm
Format: biochemical, Methanothermobacter marburgensis

## O=C(/C=C/c1ccc(O)c2oc(-c3ccc(O)c(O)c3)cc12)O[C@H](Cc1ccc(O)c(O)c1)C(=O)O [SAC, Salvianolic acid C]
  IC50: 692 µM
